Results from patent publication US20090317376A1, “Compositions And Methods For Lipo Modeling” (Georgetown University MEDICAL SCHOOL, priority 2005, published 2009).
“Also recorded” adds a separate entry of the source.

System: human fat pads
Assay: Human fat xenograft in nude athymic mice
Type: in vivo
Description: In addition to augmenting mouse fat with NPY, human fat from elective liposuction surgery is harvested by using a closed syringe system (Cell Friendly, Tulip Medical) to minimize cell trauma during harvest and aliquots of 100 μl are injected subcutaneously into a nude athymic mouse. Slow release pellets of NPY or placebo are subcutaneously implanted within 1 cm of the fat pad, replaced 2 weeks later, and then harvested after 4 weeks of formation of fat pads. Ultrasound is used to monitor vascularization of fat pads at various time points. The time-course of expression of the NPY system and its downstream mediators is determined in relation to innervation, vascularization and fat growth (by MRI, ultrasound, IHC). Dependence of adipogenesis on angiogenesis is assessed by comparing non-specific, antiangiogenic therapy with the blockade of the NPY-Y2 angiogenic pathway. […] This observation is confirmed by ultrasound (FIG. 7, bottom).
Human fat implantation: The processed fat for injection is loaded into syringes. The nude mice are anesthetized and slow release pellets inserted as described above. A small nick is made with a pair of sterile scissors in the close proximity of the pellets and 100 μl of fat is implanted using an 18 gauge Coleman infiltration cannula (Byron Medical) attached to the syringe. If necessary, the skin wound is closed with medical cyanoacrylate and the mouse is allowed to recover. The fat pad growth is monitored and the sample harvested as described above.
Ultrasonography: The mice are anesthetized by inhalation of isoflurane 1-3% in oxygen, hair removed with depilatory cream and a sterile water based ultrasonic gel is applied to the area (Aquasonic gel—Visual Sonics). The mouse is placed in the Visual Sonics mouse holder containing a thermostatically controlled heating pad to maintain mouse body temperature. The imaging is performed with a small animal ultrasound system, Visual Sonics Vivo 660 (55 MHz).
1. Cell culture: 3T3-L1 preadipocyte cells, (gift from Dr. Lane,^34) were cultured in DMEM high glucose media with glutamine, 10% calf sera (Gemini Bioproducts), d-Biotin (8 μg/ml) and Pantothenate (8 μg/ml) (Sigma). SK-N-BE(2) neuroblastoma cells (ATCC) were cultured in EMEM/F12K with 10% fetal bovine sera (FBS). HMVEC endothelial cells (Cambrex) were cultured in endothelial cell growth media (Cambrex). All media was supplemented with 100 units/ml penicillin, 100 μg/ml streptomycin and […] amphotericin. 2. […] After 24 h, cells were harvested in a 96-well harvester (Tomtec) and counted in a Betaplate Liquid Scintillation Counter (Wallac). […] After 48 hr, the cells were counted with a Beckman Coulter Counter. […]

[1] = NPY pellet vs placebo pellet, FIG. 7

## neuropeptide Y [NPY]
NPY pellet 1 μg/14 days alongside the xenograft
  xenograft vascularization (density of CD31+ vessels): increased
NPY pellet 1 μg/14 days, placebo-treated grafts underwent resorption
  xenograft 3-month survival: increased
[1]
  areas of more dense necrotic tissue (ultrasound): more in NPY-treated than placebo-treated
  vacuolization / holes in fat pads (ultrasound, IHC): more holes in the placebo-pellet treated fat pads; also recorded: more numerous in placebo-treated than NPY-treated fat pads
